# According to PMC2901175 (ACS medicinal chemistry letters, 2010):
# Columns and labels:
# [1] = tested on: VIM-2 expressing bacteria; settings: cited from earlier work
# [2] = tested on: IMP-1; settings: cited from earlier work
# [3] = biological target: VIM-2; settings: against VIM-2; cited from earlier work
# [4] = tested on: parental (BL21) E. coli; assay: Imipenem MIC in parental E. coli; format: cell-based; settings: Escherichia coli, read-out: imipenem MIC
# [5] = tested on: BL21/VIM-2 E. coli; assay: Imipenem MIC potentiation in VIM-2 transformed E. coli; format: cell-based
compound,measurement,setting,value
"C#CCCOCc1nn[nH]c1CNS(=O)(=O)c1ccc(I)cc1 [Compound 1, N-((4-((but-3-ynyloxy)methyl)-1H-1,2,3-triazol-5-yl)methyl)-4-iodo-benzenesulfonamide]",potentiation of ß-lactam antibacterial effects (in words),[1],did not potentiate
same,activity towards IMP-1 (in words),[2],inactive
same,Ki,[3],410 ± 30 nM
C[C@@H](O)[C@H]1C(=O)N2C(C(=O)O)=C(SCCN=CN)C[C@H]12 [imipenem],MIC,[4],0.21 µg/mL
same,"fold increase of imipenem MIC, BL21/VIM-2 relative to parental BL21",[5],approximately 9 fold
same,MIC,"[5]; Escherichia coli, read-out: imipenem MIC",1.85 µg/mL
"O=C(O)c1cc[c]([Hg][Cl])cc1 [pCMB, p-chloromercuribenzoic acid]",potentiation of ß-lactam antibacterial effects (in words),[1],synergistic effect
